Data taken from US8080540B2, “Therapeutically active triazoles and their use” (Abbott Products GmbH, priority 2006, dated 2011).

Target: T1, recombinant human 17β-HSD1 (Homo sapiens, UniProt P14061)
T1 construct: made in house; host or cells: Sf9 insect cells (baculovirus, Bac to Bac Expression System); microsomal fraction used
T1 sequence (P14061 1-328): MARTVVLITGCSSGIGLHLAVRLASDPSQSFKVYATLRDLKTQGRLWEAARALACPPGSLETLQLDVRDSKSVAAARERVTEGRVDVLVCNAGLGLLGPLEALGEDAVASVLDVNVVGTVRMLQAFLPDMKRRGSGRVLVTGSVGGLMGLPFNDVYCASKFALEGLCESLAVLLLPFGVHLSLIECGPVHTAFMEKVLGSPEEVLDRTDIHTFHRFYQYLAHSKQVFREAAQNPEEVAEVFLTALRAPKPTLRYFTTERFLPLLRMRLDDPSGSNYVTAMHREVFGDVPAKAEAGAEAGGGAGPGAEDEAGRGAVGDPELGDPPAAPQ
Assay: Inhibition of recombinant human 17β-HSD1 (HPLC assay, conversion of 3H-estrone to estradiol)
Format: biochemical
Conditions: 0.5 h, 30 nM 3H-estrone, 1 mM NADPH, 30 min RT, read-out: inhibition of rec. 17 β-HSD1; for inhibition at 0.1 µM: 100 nM inhibitor; for inhibition at 1 µM: 1 μM inhibitor
Experimental: 17β-HSD1 purification: Recombinant baculovirus was generated by the “Bac to Bac Expression System” (Invitrogen). Recombinant bacmid was transfected to Sf9 insect cells using “Cellfectin Reagent” (Invitrogen). 60 h later cells were harvested; the microsomal fraction was isolated as described by Puranen et al. (1994). Aliquots were stored frozen until determination of enzymatic activity. Assay—Inhibition of recombinant human 17β-HSD1: Recombinant protein (0.1 μg/ml) was incubated in 20 mM KH2PO4 pH 7.4 with 30 nM 3H-estrone and 1 mM NADPH for 30 min at RT, in the presence of potential inhibitors at concentrations of 1 μM or 0.1 μM. Inhibitor stock solutions were prepared in DMSO. Final concentration of DMSO was adjusted to 1% in all samples. The enzyme reaction was stopped by addition of 10% trichloroacetic acid (final concentration). Samples were centrifuged in a microtiter plate at 4000 rpm for 10 min. Supernatants were applied to reverse phase HPLC on a Waters Symmetry C18 column, equipped with a Waters Sentry Guard column. Isocratic HPLC runs were performed at RT at a flow rate of 1 ml/min of acetonitrile:water 48:52 as running solvent. Radioactivity was monitored in the eluate by a Packard Flow Scintillation Analyzer. Total radioactivity for estrone and estradiol were determined in each sample and percent conversion of estrone to estradiol was calculated according to the following formula: [formula] • Percent inhibition was calculated as follows: % inhibition=100−% conversion The values “% inhibition” were determined for exemplified compounds, and the results are summarized in table 4 (for 17β-HSD1).

C[C@]12CC[C@@H]3c4ccc(O)cc4CC[C@H]3[C@@H]1[C@@H](CCCn1cc(CCc3ccccc3)nn1)CC2=O [Compound 16, 3-Hydroxy-15α-[3-(4-phenethyl-[1,2,3]triazol-1-yl)-propyl]-estra-1,3,5(10)-trien-17-one]
inhibition at 0.1 µM: 38% | inhibition at 1 µM: 89%

C[C@]12CC[C@@H]3c4ccc(O)cc4CC[C@H]3[C@@H]1[C@H](CCCCn1cc(CCc3ccccc3)nn1)CC2=O [Compound 33]
inhibition at 0.1 µM: 20% | inhibition at 1 µM: 80%

COc1ccc2c(c1)CC[C@H]1[C@@H]3[C@H](CCCCn4cc(C5CC5)nn4)CC(=O)[C@@]3(C)CC[C@H]21 [Compound 111]
inhibition at 0.1 µM: 4% | inhibition at 1 µM: 43%

CC(C)CCc1cn(CCCCCC[C@@H]2CC(=O)[C@@]3(C)CC[C@@H]4c5ccc(O)cc5CC[C@H]4[C@H]23)nn1 [Compound 69]
inhibition at 0.1 µM: 30% | inhibition at 1 µM: 64%

COc1ccc2c(c1)CC[C@H]1[C@@H]3[C@H](CCCCn4cc(-c5ccc(C)cc5)nn4)CC(=O)[C@@]3(C)CC[C@H]21 [Compound 112]
inhibition at 0.1 µM: 12% | inhibition at 1 µM: 43%

COc1ccc2c(c1)CC[C@H]1[C@@H]3[C@H](CCCn4cc(-c5ccc(CO)cc5)nn4)CC(=O)[C@@]3(C)CC[C@H]21 [Compound 60]
inhibition at 0.1 µM: 19% | inhibition at 1 µM: 69%

C[C@]12CC[C@@H]3c4ccc(O)cc4CC[C@H]3[C@@H]1[C@H](CCCCCCn1cc(-c3cccc(O)c3)nn1)CC2=O [Compound 100]
inhibition at 0.1 µM: 7% | inhibition at 1 µM: 48%

COc1ccc2c(c1)CC[C@H]1[C@@H]3[C@H](CCCCn4cc(CO)nn4)CC(=O)[C@@]3(C)CC[C@H]21 [Compound 122]
inhibition at 0.1 µM: 5% | inhibition at 1 µM: 38%

COc1ccc2c(c1)CC[C@H]1[C@@H]3[C@H](CCCn4cc(C5CC5)nn4)CC(=O)[C@@]3(C)CC[C@H]21 [Compound 41]
inhibition at 0.1 µM: 23% | inhibition at 1 µM: 77%

COc1ccc2c(c1)CC[C@H]1[C@@H]3[C@H](CCCn4cc(-c5ccccc5[N+](=O)[O-])nn4)CC(=O)[C@@]3(C)CC[C@H]21 [Compound 37]
inhibition at 0.1 µM: 25% | inhibition at 1 µM: 80%

C[C@]12CC[C@@H]3c4ccc(O)cc4CC[C@H]3[C@@H]1[C@H](CCn1cc(-c3cc(F)cc(F)c3)nn1)CC2=O [Compound 5, 3-Hydroxy-15β-{2-[4-(3,5-Difluoro-phenyl)-[1,2,3]triazol-1-yl]-ethyl}-estra-1,3,5(10)-trien-17-one]
inhibition at 0.1 µM: 87% | inhibition at 1 µM: 95%

COc1ccc2c(c1)CC[C@H]1[C@@H]3[C@H](CCCn4cc(-c5ccsc5)nn4)CC(=O)[C@@]3(C)CC[C@H]21 [Compound 59]
inhibition at 0.1 µM: 18% | inhibition at 1 µM: 69%

COc1ccc(-c2cn(CCC[C@H]3CC(=O)[C@@]4(C)CC[C@@H]5c6ccc(O)cc6CC[C@H]5[C@H]34)nn2)cc1 [Compound 20, 3-Hydroxy-15α-{3-[4-(4-methoxy-phenyl)-[1,2,3]triazol-1-yl]-propyl}-estra-1,3,5(10)-trien-17-one]
inhibition at 0.1 µM: 51% | inhibition at 1 µM: 87%

Cc1ccc(-c2cn(CCC[C@H]3CC(=O)[C@@]4(C)CC[C@@H]5c6ccc(O)cc6CC[C@H]5[C@H]34)nn2)cc1 [Compound 25, 3-Hydroxy-15α-[3-(4-p-tolyl-[1,2,3]triazol-1-yl)-propyl]-estra-1,3,5(10)-trien-17-one]
inhibition at 0.1 µM: 49% | inhibition at 1 µM: 85%

CC(C)Cc1cn(CCCCCC[C@@H]2CC(=O)[C@@]3(C)CC[C@@H]4c5ccc(O)cc5CC[C@H]4[C@H]23)nn1 [Compound 58]
inhibition at 0.1 µM: 20% | inhibition at 1 µM: 70%

CC(C)CCc1cn(CCCC[C@@H]2CC(=O)[C@@]3(C)CC[C@@H]4c5ccc(O)cc5CC[C@H]4[C@H]23)nn1 [Compound 48]
inhibition at 0.1 µM: 21% | inhibition at 1 µM: 73%
